Experimental data reported in article PMC5218480 (PLoS ONE, 2017).

System: MV-4-11 cells
Experiment: Gene expression microarray analysis (Affymetrix PrimeView) and GSEA
Assay type: cell-based, human
Parameters: RFU PODN (11730768_x_at) / Fold change /veh PODN (11730768_x_at) / RFU LINC00158 (11744669_a_at) / Fold change /veh LINC00158 (11744669_a_at) / RFU DUSP10 (11751237_a_at) / Fold change /veh DUSP10 (11751237_a_at) / RFU ID3 (11757404_x_at) / Fold change /veh ID3 (11757404_x_at) / RFU PLEKHG5 (11737974_s_at) / Fold change /veh PLEKHG5 (11737974_s_at) / RFU LRRC4B (11730491_at) / Fold change /veh LRRC4B (11730491_at) / RFU GIMAP4 (11747438_a_at) / Fold change /veh GIMAP4 (11747438_a_at) / RFU KRT8 (11758183_x_at) / Fold change /veh KRT8 (11758183_x_at) / RFU CNN1 (11734310_a_at) / Fold change /veh CNN1 (11734310_a_at) / RFU VPS37D (11726825_at) / Fold change /veh VPS37D (11726825_at) / RFU C10orf10 (11716522_x_at) / Fold change /veh C10orf10 (11716522_x_at) / RFU KIR2DL2 /// KIR2DL4 /// KIR2DL5A /// KIR2DL5B /// KIR2DS1 /// KIR2DS2 /// KIR2DS3 /// KIR2DS4 /// KIR3DL3 /// KIR3DL3 /// KIR3DS1 (11738374_at) / Fold change /veh KIR2DL2 /// KIR2DL4 /// KIR2DL5A /// KIR2DL5B /// KIR2DS1 /// KIR2DS2 /// KIR2DS3 /// KIR2DS4 /// KIR3DL3 /// KIR3DL3 /// KIR3DS1 (11738374_at) / RFU C1QL1 (11718748_at) / Fold change /veh C1QL1 (11718748_at) / RFU TMPRSS4 (11747572_a_at) / Fold change /veh TMPRSS4 (11747572_a_at) / RFU HAMP (11756126_x_at) / Fold change /veh HAMP (11756126_x_at) / RFU RNFT2 (11725882_a_at) / Fold change /veh RNFT2 (11725882_a_at) / RFU NR4A2 (11747474_a_at) / Fold change /veh NR4A2 (11747474_a_at) / RFU ABCC12 (11746883_a_at) / Fold change /veh ABCC12 (11746883_a_at) / RFU TMEM136 (11760407_x_at) / Fold change /veh TMEM136 (11760407_x_at) / RFU CLDN22 /// WWC2 (11732394_at) / Fold change /veh CLDN22 /// WWC2 (11732394_at) / RFU HLA-DPB1 (11760878_x_at) / Fold change /veh HLA-DPB1 (11760878_x_at) / RFU SPINT1 (11716480_a_at) / Fold change /veh SPINT1 (11716480_a_at) / RFU GAP43 (11754022_s_at) / Fold change /veh GAP43 (11754022_s_at) / RFU A4GNT (11735810_at) / Fold change /veh A4GNT (11735810_at) / RFU PRB3 (11715151_x_at) / Fold change /veh PRB3 (11715151_x_at) / RFU TUBB4B (11761932_at) / Fold change /veh TUBB4B (11761932_at) / RFU CAPN14 (11732068_a_at) / Fold change /veh CAPN14 (11732068_a_at) / RFU TMCC2 (11721928_a_at) / Fold change /veh TMCC2 (11721928_a_at) / RFU IRGQ (11745062_a_at) / Fold change /veh IRGQ (11745062_a_at) / RFU FAM174B (11720279_a_at) / Fold change /veh FAM174B (11720279_a_at) / RFU TMPRSS4 (11748680_a_at) / Fold change /veh TMPRSS4 (11748680_a_at) / RFU FAM212B (11763350_a_at) / Fold change /veh FAM212B (11763350_a_at) / RFU PLEKHG5 (11743358_a_at) / Fold change /veh PLEKHG5 (11743358_a_at) / RFU ZSCAN30 (11745921_a_at) / Fold change /veh ZSCAN30 (11745921_a_at) / RFU CMKLR1 (11741424_a_at) / Fold change /veh CMKLR1 (11741424_a_at) / RFU LOC101060620 /// MAPK8IP1 (11723275_at) / Fold change /veh LOC101060620 /// MAPK8IP1 (11723275_at) / RFU SPTSSB (11747773_x_at) / Fold change /veh SPTSSB (11747773_x_at) / RFU PRSS12 (11739890_at) / Fold change /veh PRSS12 (11739890_at) / RFU BIN1 (11741810_x_at) / Fold change /veh BIN1 (11741810_x_at) / RFU WNT11 (11732464_a_at) / Fold change /veh WNT11 (11732464_a_at) / RFU C10orf10 (11716521_a_at) / Fold change /veh C10orf10 (11716521_a_at) / RFU C5orf56 (11738089_at) / Fold change /veh C5orf56 (11738089_at) / RFU CYB561 (11721691_x_at) / Fold change /veh CYB561 (11721691_x_at) / RFU ANKRD19P (11752326_a_at) / Fold change /veh ANKRD19P (11752326_a_at) / RFU OR2T12 /// OR2T33 /// OR2T8 (11738714_s_at) / Fold change /veh OR2T12 /// OR2T33 /// OR2T8 (11738714_s_at) / RFU VCAN (11748164_a_at) / Fold change /veh VCAN (11748164_a_at) / RFU JSRP1 (11732532_at) / Fold change /veh JSRP1 (11732532_at) / RFU KRTAP10-11 (11738290_x_at) / Fold change /veh KRTAP10-11 (11738290_x_at) / RFU MYO3A (11730013_a_at) / Fold change /veh MYO3A (11730013_a_at) / RFU EBF3 (11725865_a_at) / Fold change /veh EBF3 (11725865_a_at) / RFU CAMK2N1 (11719241_x_at) / Fold change /veh CAMK2N1 (11719241_x_at) / RFU C5orf56 (11738088_a_at) / Fold change /veh C5orf56 (11738088_a_at) / RFU OLFML3 (11715873_a_at) / Fold change /veh OLFML3 (11715873_a_at) / RFU LOC100653217 /// NTM (11731650_a_at) / Fold change /veh LOC100653217 /// NTM (11731650_a_at) / RFU MAPK11 (11762145_a_at) / Fold change /veh MAPK11 (11762145_a_at) / RFU FIZ1 (11724087_x_at) / Fold change /veh FIZ1 (11724087_x_at) / RFU OASL (11726364_x_at) / Fold change /veh OASL (11726364_x_at) / RFU SOX15 (11748057_x_at) / Fold change /veh SOX15 (11748057_x_at) / RFU CD79A (11719716_a_at) / Fold change /veh CD79A (11719716_a_at) / RFU HIST1H1D (11736915_at) / Fold change /veh HIST1H1D (11736915_at) / RFU CASKIN2 (11723855_a_at) / Fold change /veh CASKIN2 (11723855_a_at) / RFU LOC730098 (11760151_x_at) / Fold change /veh LOC730098 (11760151_x_at) / RFU OR4N2 (11742367_at) / Fold change /veh OR4N2 (11742367_at) / RFU PRRT2 (11749266_a_at) / Fold change /veh PRRT2 (11749266_a_at) / RFU SNX32 (11753110_a_at) / Fold change /veh SNX32 (11753110_a_at) / RFU CDHR5 (11726645_a_at) / Fold change /veh CDHR5 (11726645_a_at) / RFU RCAN1 (11760418_a_at) / Fold change /veh RCAN1 (11760418_a_at) / RFU FAM167A (11723789_a_at) / Fold change /veh FAM167A (11723789_a_at) / RFU FAM26E (11764081_at) / Fold change /veh FAM26E (11764081_at) / RFU ISYNA1 (11749810_s_at) / Fold change /veh ISYNA1 (11749810_s_at) / RFU ACY1 (11761880_at) / Fold change /veh ACY1 (11761880_at) / RFU 11764098_at / Fold change /veh 11764098_at / RFU SAMD14 (11745864_x_at) / Fold change /veh SAMD14 (11745864_x_at) / RFU NPB (11741838_a_at) / Fold change /veh NPB (11741838_a_at) / RFU TMPRSS6 (11731388_a_at) / Fold change /veh TMPRSS6 (11731388_a_at) / RFU KRTAP10-2 (11738614_at) / Fold change /veh KRTAP10-2 (11738614_at) / RFU ARHGAP8 /// PRR5-ARHGAP8 (11727945_x_at) / Fold change /veh ARHGAP8 /// PRR5-ARHGAP8 (11727945_x_at) / RFU KRTAP5-7 /// NADSYN1 (11734609_at) / Fold change /veh KRTAP5-7 /// NADSYN1 (11734609_at) / RFU RASL12 (11751679_a_at) / Fold change /veh RASL12 (11751679_a_at) / RFU CDKN2B (11736163_a_at) / Fold change /veh CDKN2B (11736163_a_at) / RFU PRF1 (11729649_at) / Fold change /veh PRF1 (11729649_at) / RFU, ZNF638 /// ZNF638-IT1 / Fold change vs veh, ZNF638 /// ZNF638-IT1 / RFU, PANK3 / Fold change vs veh, PANK3 / RFU, SH3YL1 / Fold change vs veh, SH3YL1 / RFU, ZEB2 / Fold change vs veh, ZEB2 / RFU, NRIP1 / Fold change vs veh, NRIP1 / RFU, PTTG1IP / Fold change vs veh, PTTG1IP / RFU, CAPN2 / Fold change vs veh, CAPN2 / RFU, MED14 / Fold change vs veh, MED14 / RFU, SNORA58 / Fold change vs veh, SNORA58 / RFU, C1orf63 / Fold change vs veh, C1orf63 / RFU, LRRFIP1 / Fold change vs veh, LRRFIP1 / RFU, NDUFAF7 / Fold change vs veh, NDUFAF7 / RFU, SLC12A2 / Fold change vs veh, SLC12A2 / RFU, IBTK / Fold change vs veh, IBTK / RFU, ESF1 / Fold change vs veh, ESF1 / Fold change vs veh, TMEM50B / RFU, TAOK1 / Fold change vs veh, TAOK1 / RFU, ACBD3 / Fold change vs veh, ACBD3 / RFU, TMA16 / Fold change vs veh, TMA16 / RFU, RWDD3 / Fold change vs veh, RWDD3 / RFU, BCAT1 / Fold change vs veh, BCAT1 / RFU, EDEM3 / Fold change vs veh, EDEM3 / RFU, TMEM33 / Fold change vs veh, TMEM33 / RFU, WDR75 / Fold change vs veh, WDR75 / RFU, AHCTF1 / Fold change vs veh, AHCTF1 / RFU, TFRC / Fold change vs veh, TFRC / RFU, ZDHHC17 / Fold change vs veh, ZDHHC17 / RFU, NOM1 / Fold change vs veh, NOM1 / RFU, ARL8B / Fold change vs veh, ARL8B / RFU, ZBTB11 / Fold change vs veh, ZBTB11 / RFU, TAMM41 / Fold change vs veh, TAMM41 / RFU, KIAA1704 /// LOC100996395 / Fold change vs veh, KIAA1704 /// LOC100996395 / RFU, ING1 / Fold change vs veh, ING1 / RFU, TRMT61B / Fold change vs veh, TRMT61B / RFU, FUBP3 / Fold change vs veh, FUBP3 / RFU, TP53 / Fold change vs veh, TP53 / RFU, TNKS2 / Fold change vs veh, TNKS2 / RFU, ZFP14 / Fold change vs veh, ZFP14 / RFU, ACTR2 / Fold change vs veh, ACTR2 / RFU, PPP3R1 / Fold change vs veh, PPP3R1 / RFU, PIK3R1 / Fold change vs veh, PIK3R1 / RFU, HNRNPA1 / Fold change vs veh, HNRNPA1 / RFU, RNF170 / Fold change vs veh, RNF170 / RFU, ZNF28 / Fold change vs veh, ZNF28 / RFU, RNGTT / Fold change vs veh, RNGTT / RFU, OGT / Fold change vs veh, OGT / RFU, BRD1 / Fold change vs veh, BRD1 / RFU, MARS / Fold change vs veh, MARS / RFU, ZNF655 / Fold change vs veh, ZNF655 / RFU, FAHD1 / Fold change vs veh, FAHD1 / RFU, BDP1 / Fold change vs veh, BDP1 / RFU, LRRCC1 / Fold change vs veh, LRRCC1 / RFU, ARID1A / Fold change vs veh, ARID1A / RFU, ZNF146 / Fold change vs veh, ZNF146 / RFU, ZNF330 / Fold change vs veh, ZNF330 / RFU, GPN3 / Fold change vs veh, GPN3 / RFU, C9orf123 / Fold change vs veh, C9orf123 / RFU, N4BP2L2 / Fold change vs veh, N4BP2L2 / RFU, ARFIP1 / Fold change vs veh, ARFIP1 / RFU, FAM179B / Fold change vs veh, FAM179B / RFU, BCL10 / Fold change vs veh, BCL10 / RFU, UHRF1BP1L / Fold change vs veh, UHRF1BP1L / RFU, BET1 / Fold change vs veh, BET1 / RFU, CNOT2 / Fold change vs veh, CNOT2 / RFU, ZNF268 / Fold change vs veh, ZNF268 / Fold change vs veh, ZNF507 / RFU, DGCR2 / Fold change vs veh, DGCR2 / RFU, WDSUB1 / Fold change vs veh, WDSUB1 / Fold change vs veh, HSP90B1 /// MIR3652 / RFU, ADSS / Fold change vs veh, ADSS / RFU, GK / Fold change vs veh, GK / RFU, ZNF148 / Fold change vs veh, ZNF148 / RFU, TAF9 / Fold change vs veh, TAF9 / RFU, SLC1A5 / Fold change vs veh, SLC1A5 / RFU, SLMO2 / Fold change vs veh, SLMO2 / RFU, ABCC4 / Fold change vs veh, ABCC4 / RFU, LOC101060439 /// RAP1B / Fold change vs veh, LOC101060439 /// RAP1B / RFU, RFX7 / Fold change vs veh, RFX7 / RFU, GTPBP10 / Fold change vs veh, GTPBP10 / RFU, CNEP1R1 / Fold change vs veh, CNEP1R1 / RFU, BIVM-ERCC5 /// ERCC5 / Fold change vs veh, BIVM-ERCC5 /// ERCC5 / RFU, ILF3 / Fold change vs veh, ILF3 / RFU 11762660_at / Fold change /veh 11762660_at / RFU VCAN (11757783_s_at) / Fold change /veh VCAN (11757783_s_at) / RFU DDX43 (11728927_at) / Fold change /veh DDX43 (11728927_at) / RFU KRT8 (11758188_x_at) / Fold change /veh KRT8 (11758188_x_at) / RFU NKD1 (11759106_at) / Fold change /veh NKD1 (11759106_at) / RFU SRD5A1 (11742802_a_at) / Fold change /veh SRD5A1 (11742802_a_at) / RFU TPSAB1 /// TPSB2 (11721975_s_at) / Fold change /veh TPSAB1 /// TPSB2 (11721975_s_at) / RFU GSTM3 (11746129_a_at) / Fold change /veh GSTM3 (11746129_a_at) / RFU IL23R (11737362_x_at) / Fold change /veh IL23R (11737362_x_at) / RFU TMEM51 (11727254_a_at) / Fold change /veh TMEM51 (11727254_a_at) / RFU PIWIL2 (11732686_x_at) / Fold change /veh PIWIL2 (11732686_x_at) / RFU ORM1 (11744905_x_at) / Fold change /veh ORM1 (11744905_x_at) / RFU CCDC152 (11743942_at) / Fold change /veh CCDC152 (11743942_at) / RFU ECM1 (11717891_a_at) / Fold change /veh ECM1 (11717891_a_at) / RFU IL23R (11748794_a_at) / Fold change /veh IL23R (11748794_a_at) / RFU TNFAIP8L3 (11732012_x_at) / Fold change /veh TNFAIP8L3 (11732012_x_at) / RFU MBOAT4 (11741988_at) / Fold change /veh MBOAT4 (11741988_at) / RFU 11764193_at / Fold change /veh 11764193_at / RFU TMEM53 (11763286_at) / Fold change /veh TMEM53 (11763286_at) / RFU MAGEB2 (11727129_at) / Fold change /veh MAGEB2 (11727129_at) / RFU TMEM200A (11744735_a_at) / Fold change /veh TMEM200A (11744735_a_at) / RFU CCDC152 (11751479_a_at) / Fold change /veh CCDC152 (11751479_a_at) / RFU FAM211A (11726209_a_at) / Fold change /veh FAM211A (11726209_a_at) / RFU RGS16 (11746705_a_at) / Fold change /veh RGS16 (11746705_a_at) / RFU VCAN (11755009_s_at) / Fold change /veh VCAN (11755009_s_at) / RFU RHOB (11743442_s_at) / Fold change /veh RHOB (11743442_s_at) / RFU RGS16 (11720943_a_at) / Fold change /veh RGS16 (11720943_a_at) / RFU RGS16 (11720944_at) / Fold change /veh RGS16 (11720944_at) / RFU, VPS4B / Fold change vs veh, VPS4B / RFU, CREB1 / Fold change vs veh, CREB1 / RFU, DNAJC13 / Fold change vs veh, DNAJC13 / RFU, GNAQ / Fold change vs veh, GNAQ / RFU, CDK5R1 / Fold change vs veh, CDK5R1 / RFU, ZRANB3 / Fold change vs veh, ZRANB3 / RFU, CUL4A / Fold change vs veh, CUL4A / RFU, CCNY / Fold change vs veh, CCNY / RFU, UFL1 / Fold change vs veh, UFL1 / RFU, COG3 / Fold change vs veh, COG3 / RFU, DIAPH2 / Fold change vs veh, DIAPH2 / RFU, SKA2 / Fold change vs veh, SKA2 / RFU, AFF3 / Fold change vs veh, AFF3 / RFU, LMF1 / Fold change vs veh, LMF1 / RFU, IPO11 / Fold change vs veh, IPO11 / RFU, DFFB / Fold change vs veh, DFFB / RFU, FOXP1 / Fold change vs veh, FOXP1 / RFU, CARD8 / Fold change vs veh, CARD8 / RFU, STRN3 / Fold change vs veh, STRN3 / RFU, ADK / Fold change vs veh, ADK / RFU, RASSF2 / Fold change vs veh, RASSF2 / RFU, WIPF1 / Fold change vs veh, WIPF1 / RFU, LARP1B / Fold change vs veh, LARP1B / RFU, RASA1 / Fold change vs veh, RASA1 / RFU, RB1 / Fold change vs veh, RB1 / RFU, PPFIA1 / Fold change vs veh, PPFIA1 / RFU, MAT2A / Fold change vs veh, MAT2A / RFU, CCT5 / Fold change vs veh, CCT5 / RFU, WDR92 / Fold change vs veh, WDR92 / RFU, CUX1 / Fold change vs veh, CUX1 / RFU, TTC7A / Fold change vs veh, TTC7A / RFU, TMEM135 / Fold change vs veh, TMEM135 / RFU, DEPTOR / Fold change vs veh, DEPTOR / RFU, CPM / Fold change vs veh, CPM / RFU, DNAJB6 / Fold change vs veh, DNAJB6 / RFU, CACNA2D3 / Fold change vs veh, CACNA2D3 / RFU, DTX4 / Fold change vs veh, DTX4 / RFU, TFCP2 / Fold change vs veh, TFCP2 / RFU, GMCL1 /// GMCL1P1 / Fold change vs veh, GMCL1 /// GMCL1P1 / RFU, AEBP2 / Fold change vs veh, AEBP2 / RFU, SNHG1 /// SNORD22 /// SNORD25 /// SNORD26 /// SNORD27 /// SNORD28 /// SNORD29 /// SNORD31 / Fold change vs veh, SNHG1 /// SNORD22 /// SNORD25 /// SNORD26 /// SNORD27 /// SNORD28 /// SNORD29 /// SNORD31 / Fold change (Aza/veh), C12orf56 (ProbeSet 11735607_a_at) / Fold change (ACY-1035/veh), C12orf56 (ProbeSet 11735607_a_at) / Fold change (Aza/veh), FGFR1OP (ProbeSet 11751329_s_at) / Fold change (ACY-1035/veh), FGFR1OP (ProbeSet 11751329_s_at) / Fold change (Aza/veh), VPS36 (ProbeSet 11739960_a_at) / Fold change (ACY-1035/veh), VPS36 (ProbeSet 11739960_a_at) / RFU SYPL1 (11715823_x_at) / Fold change /veh SYPL1 (11715823_x_at) / RFU IGFBP7 (11715501_s_at) / Fold change /veh IGFBP7 (11715501_s_at) / RFU REEP3 (11722064_at) / Fold change /veh REEP3 (11722064_at) / RFU IGLL1 (11728026_x_at) / Fold change /veh IGLL1 (11728026_x_at): dose or concentration left out as unconfirmed
Conditions: MV-4-11 cells, 48 hours

With Nc1ccc(-c2cccs2)cc1NC(=O)c1ccc2c(c1)cc(C1CC1)n2CCN1CCOCC1 [ACY-1035] the “RFU IL23R (11748794_a_at)” value was 5.77 RFU.
